Results published in patent EP0647136B1, “USE OF CONDENSED BIS-(3,4-DIHYDRO-PYRIDINYL)METHANE FOR TREATING CROHN'S DISEASE, COLITIS ULCEROSA, CHRONIC INFLAMATORY PROCESSES AND AS AN ANTIPROLIFERATIVE” (BOEHRINGER INGELHEIM INTERNATIONAL GmbH, priority 1992, dated 1994).

System: RBL-2H3-Zellen
Experiment: Antigen-induced (DNP-BSA) activation of sensitised RBL-2H3 cells, fluorometric cytoplasmic Ca2+ measurement
Type: cell-based, rat
Settings: 10 µM
Source text: Verwendet werden einzelne an Glasplättchen adhärente RBL-2H3-Zellen (eine den Mastzellen verwandte Tumorzellinie).
Die Kultivierung und Anhaftung der RBL-2H3-Zellen erfolgt in der HIDE und BEAVEN (1991) beschriebenen Methode. Zur Sensibilisierung der adhäsiven RBL-2H3-Zellen werden die Zellen 2 Stunden bei Raumtemperatur mit einer 1:2000 verdünnten käuflichen Gammaglobulin E-Lösung gegen einen Dinitrophenol-Rinderserumalbumin-Komplex (DNP-BSA-Antigen) inkubiert. Anschließend werden die Zellen gewaschen. Durch Zusatz von 0,1 ml DNP-BSA-Lösung (10 µg/ml) erfolgt eine massive immunologische Zellaktivierung, die durch einen cytoplasmatischen Ca^2+-overload vermittelt wird. Die fluorometrische Calciummessung im Cytoplasma einzelner adhärenter RBL-2H3-Zellen erfolgt in Analogie zu der von KUDO und OGURA (1986) für neuronale Zellen beschriebenen Methode, die auch weiter oben in dieser Beschreibung erläutert wird.

Structure (SMILES): O=C(O)c1cc(=O)c2c(OCC(O)COc3cccc4oc(C(=O)O)cc(=O)c34)cccc2o1 [Chromoglycat]
- Hemmung der antigen-induzierten Zellaktivierung: ca. 50%
